# Experimental data from patent US4398023A, “β-1,3-Glucanpolyol, process for preparation thereof, and utilization thereof” (Meito Sangyo Kabushiki Kaisha, priority 1979, dated 1983).
# Columns and labels:
# [1] = Intrinsic viscosity [.eta.]; type: physicochemical; details: 25° C., aqueous solution; concentration in g/100 ml
# Description: The intrinsic viscosity, as used in the present invention, is [.eta.] defined by the following equation. [formula] wherein .eta.sp =(.eta.-.eta.o)/.eta.o =/.eta.o -1 in which .eta. is the viscosity (at 25° C. in aqueous solution) of the solution and .eta.o is the viscosity of the solvent; and C is the concentration in g/100 ml.
# CCM-adenocarcinoma = experiment: Antitumor activity test using CCM-adenocarcinoma in ICR-JCL mice; type: in vivo; details: 1 mg/kg/day, intraperitoneal, once a day for 10 days, fifth week
# Description: (§1) The ascites cells of Sarcoma 180 were inoculated peritoneally in ICR-JCL mice having a body weight of about 23 g. […] Starting 24 hours after the transplantation, the glucanpolyol of this invention was intraperitoneally administered once a day for 10 days. In the fifth week, the tumor was enucleated and its weight was compared with that in non-treated groups. The tumor inhibition ratio was calculated, and the number of tumors which completely regressed was observed.
# (§2) The tumor inhibition ratio was calculated in accordance with the following equation. [formula] wherein C is the average weight of tumor in non-treated groups (10 mice per group),
# (§3) T is the average weight of tumor in treated groups (10 mice per group).
# (8) An antitumor activity test using CCM-adenocarcinoma in ICR-JCL mice
# Six million CCM-adenocarcinoma cells were transplanted into the subcutaneous portion of the right inguinal part of ICR-JCL mice having a body weight of about 23 g, and then the same operation as in (1) above was performed.
# Sarcoma 180 [2] = experiment: Antitumor activity test using Sarcoma 180 in Balb/c mice; type: in vivo; details: 1 mg/kg/day, intraperitoneal, once a day for 10 days, fifth week
# Description: as §1, §2, §3
# (5) An antitumor activity test using Sarcoma 180 in Balb/c mice
# Six million Sarcoma 180 cells were transplanted into the subcutaneous portion of the right inguinal part of the Balb/c mice having a body weight of about 23 g, and then, the same operation as in (1 ) above was performed.
# ICR-JCL mice = experiment: Toxicity (LD50) on ICR-JCL mice; type: in vivo; details: ICR-JCL mice
# Source text: The toxicity of the β-1,3-glucanpolyol of this invention is very low, and the LD50 values of the products obtained in Examples 1, 4 and 5, for example, on ICR-JCL mice are as shown in Table 10.
# Sarcoma 180 [3] = experiment: Antitumor activity test using Sarcoma 180 in C3H/He mice; type: in vivo; details: intraperitoneal, once a day for 10 days, fifth week
# Description: (§4) Starting 24 hours after the transplantation, the glucanpolyol of this invention was intraperitoneally administered once a day for 10 days. In the fifth week, the tumor was enucleated and its weight was compared with that in non-treated groups. The tumor inhibition ratio was calculated, and the number of tumors which completely regressed was observed.
# as §2, §3
# (4) An antitumor activity test using Sarcoma 180 in C3H/He mice
# Meth-A = experiment: Antitumor activity test using Meth-A in Balb/c mice; type: in vivo; details: intraperitoneal, once a day for 10 days, fifth week
# Description: as §4, §2, §3
# (3) An antitumor activity test using Meth-A in Balb/c mice
# [4] = tested on: NTF-reticulum cell sarcoma; experiment: Antitumor activity test using NTF-reticulum cell sarcoma in ICR-JCL mice; type: in vivo; details: 1 mg/kg/day, intraperitoneal, once a day for 10 days, fifth week
# Description: as §1, §2, §3
# (9) An antitumor activity test using NTF-reticulum cell sarcoma in ICR-JCL mice
# Six million NFT-reticulum cell sarcoma cells were transplanted into the subcutaneous portion of the right inguinal part of ICR-JCL mice having a body weight of about 23 g, and then, the same operation as in (1) above was performed.
# Sarcoma 180 [5] = experiment: Antitumor activity test using Sarcoma 180 in ddY mice; type: in vivo; details: 1 mg/kg/day, intraperitoneal, once a day for 10 days, fifth week
# Description: as §1, §2, §3
# (7) An antitumor activity test using Sarcoma 180 in ddY mice
# Six million Sarcoma 180 cells were transplanted into the subcutaneous portion of the right inguinal part of ddY mice having a body weight of about 23 g, and then, the same operation as in (1) above was performed.
# Sarcoma 180 [6] = experiment: Antitumor activity test using Sarcoma 180 in ICR-JCL mice; type: in vivo; details: intraperitoneal, once a day for 10 days, fifth week
# Description: (1) An antitumor activity test using Sarcoma 180 in ICR-JCL mice
# as §4, §2, §3
# Ehrlich Carcinoma = experiment: Antitumor activity test using Ehrlich Carcinoma in ICR-JCL mice; type: in vivo; details: intraperitoneal, once a day for 10 days, fifth week
# Description: as §4, §2, §3
# (2) An antitumor activity test using Ehrlich Carcinoma in ICR-JCL mice
# Sarcoma 180 [7] = experiment: Antitumor activity test using Sarcoma 180 in C57 BL/6 mice; type: in vivo; details: 1 mg/kg/day, intraperitoneal, once a day for 10 days, fifth week
# Description: as §1, §2, §3
# (6) An antitumor activity test using Sarcoma 180 in C57 BL/6 mice
# Six million Sarcoma 180 cells were transplanted into the subcutaneous portion of the right inguinal part of the C57 BL/6 mice having a body weight of about 20 g, and then the same operation as in (1) above was performed.
substance,measurement,setting,value
"β-1,3-glucanpolyol [Example 1]",Intrinsic viscosity [.eta.],[1],6.21 dL/g
same,Average weight of tumor,CCM-adenocarcinoma,0.52 g
same,Complete regression,CCM-adenocarcinoma,7/10
same,Tumor inhibition ratio,CCM-adenocarcinoma,95.7%
same,Average weight of tumor,Sarcoma 180 [2],0.08 g
same,Complete regression,Sarcoma 180 [2],9/10
same,Tumor inhibition ratio,Sarcoma 180 [2],97.8%
same,LD50 Intraperitoneal administration,ICR-JCL mice; intraperitoneal,above 2 g/kg
same,LD50 Intravenous administration,ICR-JCL mice; intravenous,above 0.5 g/kg
same,LD50 Oral administration,ICR-JCL mice; oral,above 20 g/kg
same,Average weight of tumor,Sarcoma 180 [3]; 1 mg/kg/day,5.14 g
same,Complete regression,Sarcoma 180 [3]; 1 mg/kg/day,0/10
same,Tumor inhibition ratio,Sarcoma 180 [3]; 1 mg/kg/day,60.2%
same,Average weight of tumor,Sarcoma 180 [3]; 5 mg/kg/day,2.14 g
same,Complete regression,Sarcoma 180 [3]; 5 mg/kg/day,6/10
same,Tumor inhibition ratio,Sarcoma 180 [3]; 5 mg/kg/day,83.4%
same,Average weight of tumor,Sarcoma 180 [3]; 20 mg/kg/day,4.62 g
same,Complete regression,Sarcoma 180 [3]; 20 mg/kg/day,1/10
same,Tumor inhibition ratio,Sarcoma 180 [3]; 20 mg/kg/day,64.2%
same,Average weight of tumor,Meth-A; 1 mg/kg/day,7.74 g
same,Complete regression,Meth-A; 1 mg/kg/day,0/10
same,Tumor inhibition ratio,Meth-A; 1 mg/kg/day,42.1%
same,Average weight of tumor,Meth-A; 5 mg/kg/day,5.57 g
same,Complete regression,Meth-A; 5 mg/kg/day,0/10
same,Tumor inhibition ratio,Meth-A; 5 mg/kg/day,58.3%
same,Average weight of tumor,Meth-A; 20 mg/kg/day,9.25 g
same,Complete regression,Meth-A; 20 mg/kg/day,0/10
same,Tumor inhibition ratio,Meth-A; 20 mg/kg/day,30.8%
same,Average weight of tumor,[4],0.51 g
same,Complete regression,[4],8/10
same,Tumor inhibition ratio,[4],91.1%
same,Average weight of tumor,Sarcoma 180 [5],0.39 g
same,Complete regression,Sarcoma 180 [5],7/10
same,Tumor inhibition ratio,Sarcoma 180 [5],96.5%
same,Average weight of tumor,Sarcoma 180 [6]; 1 mg/kg/day,0.28 g
same,Complete regression,Sarcoma 180 [6]; 1 mg/kg/day,9/10
same,Tumor inhibition ratio,Sarcoma 180 [6]; 1 mg/kg/day,97.5%
same,Average weight of tumor,Sarcoma 180 [6]; 5 mg/kg/day,0 g
same,Complete regression,Sarcoma 180 [6]; 5 mg/kg/day,10/10
same,Tumor inhibition ratio,Sarcoma 180 [6]; 5 mg/kg/day,100%
same,Average weight of tumor,Sarcoma 180 [6]; 10 mg/kg/day,0.17 g
same,Complete regression,Sarcoma 180 [6]; 10 mg/kg/day,9/10
same,Tumor inhibition ratio,Sarcoma 180 [6]; 10 mg/kg/day,98.5%
same,Average weight of tumor,Ehrlich Carcinoma; 1 mg/kg/day,0 g
same,Complete regression,Ehrlich Carcinoma; 1 mg/kg/day,10/10
same,Tumor inhibition ratio,Ehrlich Carcinoma; 1 mg/kg/day,100%
same,Average weight of tumor,Ehrlich Carcinoma; 5 mg/kg/day,0 g
same,Complete regression,Ehrlich Carcinoma; 5 mg/kg/day,10/10
same,Tumor inhibition ratio,Ehrlich Carcinoma; 5 mg/kg/day,100%
same,Average weight of tumor,Ehrlich Carcinoma; 20 mg/kg/day,0.31 g
same,Complete regression,Ehrlich Carcinoma; 20 mg/kg/day,7/10
same,Tumor inhibition ratio,Ehrlich Carcinoma; 20 mg/kg/day,97.9%
same,Average weight of tumor,Sarcoma 180 [7],0.15 g
same,Complete regression,Sarcoma 180 [7],8/10
same,Tumor inhibition ratio,Sarcoma 180 [7],95.8%
"β-1,3-glucanpolyol [Example 2]",Intrinsic viscosity [.eta.],[1],7.25 dL/g
same,Average weight of tumor,CCM-adenocarcinoma,0.61 g
same,Complete regression,CCM-adenocarcinoma,8/10
same,Tumor inhibition ratio,CCM-adenocarcinoma,95.0%
same,Average weight of tumor,Sarcoma 180 [2],0.09 g
same,Complete regression,Sarcoma 180 [2],8/10
same,Tumor inhibition ratio,Sarcoma 180 [2],97.5%
same,Average weight of tumor,Sarcoma 180 [3]; 5 mg/kg/day,3.50 g
same,Complete regression,Sarcoma 180 [3]; 5 mg/kg/day,4/10
same,Tumor inhibition ratio,Sarcoma 180 [3]; 5 mg/kg/day,72.9%
same,Average weight of tumor,Meth-A; 5 mg/kg/day,6.73 g
same,Complete regression,Meth-A; 5 mg/kg/day,0/10
same,Tumor inhibition ratio,Meth-A; 5 mg/kg/day,49.6%
same,Average weight of tumor,[4],0.37 g
same,Complete regression,[4],8/10
same,Tumor inhibition ratio,[4],93.6%
same,Average weight of tumor,Sarcoma 180 [5],1.08 g
same,Complete regression,Sarcoma 180 [5],7/10
same,Tumor inhibition ratio,Sarcoma 180 [5],90.3%
same,Average weight of tumor,Sarcoma 180 [6]; 5 mg/kg/day,0.30 g
same,Complete regression,Sarcoma 180 [6]; 5 mg/kg/day,8/10
same,Tumor inhibition ratio,Sarcoma 180 [6]; 5 mg/kg/day,97.3%
same,Average weight of tumor,Ehrlich Carcinoma; 1 mg/kg/day,1.27 g
same,Complete regression,Ehrlich Carcinoma; 1 mg/kg/day,6/10
same,Tumor inhibition ratio,Ehrlich Carcinoma; 1 mg/kg/day,91.5%
same,Average weight of tumor,Ehrlich Carcinoma; 5 mg/kg/day,0.83 g
same,Complete regression,Ehrlich Carcinoma; 5 mg/kg/day,7/10
same,Tumor inhibition ratio,Ehrlich Carcinoma; 5 mg/kg/day,94.4%
same,Average weight of tumor,Sarcoma 180 [7],0.21 g
same,Complete regression,Sarcoma 180 [7],8/10
same,Tumor inhibition ratio,Sarcoma 180 [7],94.1%
